Laboratory results: patent publication US20250195660A1, “INACTIVATING BACTERIA WITH ELECTRIC PULSES AND ANTIBIOTICS” (Purdue Research Foundation, priority 2018, published 2025)
Entries after “also recorded” stand apart in the source; their conditions may differ.

Columns and labels:
[1] = test system: carbapenem-resistant Escherichia coli (ATCC BA-2452, NDM-1 positive); test: Inactivation of carbapenem-resistant E. coli by 300 ns electric pulses and/or antibiotics (CFU plating); type: cell-based; details: drug alone, 2 μg/mL or 20 μg/mL, no EPs
Description: (§1) Except for rifampicin, the five other antibiotics in these examples primarily target gram-positive bacteria and are largely ineffective or not used against gram-negative bacteria in a clinical setting.
(§2) A Blumlein pulsed generator consisting of two lines comprised of twelve 2000 pF capacitors connected by inductors produced 300 ns EPs with rise-times of 30 ns and fall-times of 35 ns at a repetition frequency of 1 Hz (12). The EPs were applied to a standard 2 mm gap electroporation cuvette (Dot Scientific R) filled with a solution containing the microorganisms. Used was a Luria broth of 0.5% salinity (5 grams of NaCl/Liter) for the solution to electrically match the resistance of the sample with the impedance of the pulse generator (11Ω) to prevent signal reflection. The voltage measurements were taken using a LeCroy PPE 20 kV high voltage probe with a 1000:1 attenuation recorded by a TeleDyne LeCroy® Waverunner 6 Zi Oscilloscope with a bandwidth of 4 GHZ.
(§3) The gram-negative strains included a carbapenem-resistant Escherichia coli (ATCC® BA-2452TM, New Delhi metallo-beta-lactamase NDM-1 positive.), Klebsiella pneumoniae (ATCC® BAA-2146TM NDM-I positive), and a gentamicin, streptomycin and sulfonamide resistant Pseudomonas aeruginosa (BEI Resources NR-31040). Assessed was the gram-positive strain of methicillin resistant Staphylococcus aureus (USA300-0114 strain), which is also resistant to erythromycin and tetracycline. Samples were cultured in Luria broth (LB Broth Lennox, powder microbial growth medium, SIGMA-ALDRICH®) by taking 25 mL of broth in a 50 mL sterile conical tube and incubating in a shaker for 16 h at 37° C. Samples were diluted 50% by adding 25 mL media to the incubated sample as we plated controls for each experiment and condition.
(§4) Samples were treated in 2 mm gap cuvettes containing 365 μL of sample between the electrodes, with bio-grade mineral oil added on top of the electrode plates to prevent arcing.
(§5) To establish a common baseline for comparing different NSEP parameters, we fixed the energy density U delivered to the cuvettes according to Formula (1) (above). For 300 ns EPs, 500 EPs at 20 kV/cm and 222 EPs at 30 kV/cm delivered the same energy to the sample.
(§6) Tissue culture Petri dishes from VWR R (15 cm diameter, 10 mm height) were utilized for plating. Each plate was covered with 15 mL of Luria broth (Agar, microbiology tested powder, SIGMA-ALDRICH®), which was prepared by adding 20 g of LB Lennox (SIGMA-ALDRICH) and 15 g/L of agar to water prior to being autoclaved. The salinity of the agar was the same as the LB (0.5% NaCl) to minimize additional environmental stressors on the bacteria.
(§7) Removed was 20 μL from each cuvette and added to 180 μL of PBS in a 96-well dish in triplicate. Each well was then diluted by a ratio of 10:1 five additional times by taking 20 μL of the diluted sample into subsequent wells using multi-channel pipettes (using fresh tips for each dilution). Plated were the six dilutions of each sample two times each by adding 4 μL from each well onto the Petri dish using a multi-channel pipette, which allowed the plating of all three replicates on the same plate to achieve n=6. These plates were then cultured overnight in an incubator at 37° C., and counted the next day.

[2] = test system: gentamicin, streptomycin and sulfonamide resistant Pseudomonas aeruginosa (BEI Resources NR-31040); test: Inactivation of P. aeruginosa by 300 ns electric pulses and/or antibiotics (CFU plating); type: cell-based; details: for additional inactivation of P. aeruginosa: 20 kV/cm NSEPs + 2 μg/mL or 20 μg/mL
Description: as §1, §2, §3, §4, §5, §6, §7

[3] = test system: Klebsiella pneumoniae (ATCC BAA-2146 NDM-I positive); test: Inactivation of K. pneumoniae by 300 ns electric pulses and/or antibiotics (CFU plating); type: cell-based
Description: as §1, §2, §3, §4, §5, §6, §7

[4] = test system: methicillin resistant Staphylococcus aureus (USA300-0114 strain); test: Inactivation of MRSA by 300 ns electric pulses and/or antibiotics (CFU plating); type: cell-based
Description: as §1, §2
as §3, with “condition. […]” for “condition.”
Removed was 20 μL from each cuvette and added to 180 μL of PBS in a 96-well dish in triplicate. […] These plates were then cultured overnight in an incubator at 37° C., and counted the next day.

[5] = test system: Stapphylococcus aureus (gram positive bacterium number 25923); test: Inactivation of S. aureus by 300 ns electric pulses combined with antibiotic (CFU plating); type: cell-based, Staphylococcus aureus
Method: (§8) Equipment. Used was a capacitor based Blumlein pulse generator with a spark gap switch to produce trapezoidal EPs of 300 ns duration at the peak with rise and fall times close to 50 ns. Multiple pulses were delivered at a frequency of 1 Hz.
(§9) The samples were treated in a standard electroporation cuvette (Dot Scientific) whose resistance must match the pulse generator's impedance to prevent pulse reflection. Utilizing Luria broth, containing 0.5% NaCl, in a cuvette with gap distances of 1 mm and 2 mm yielded the best electrical match (no reflections in the measured signal). Used were 2 mm cuvettes to ensure consistency between tests, and the applied voltage was measured across the cuvette using a LeCroy PPE 20 kV high voltage probe with a 1000:1 attenuation feeding into a TeleDyne LeCroy Waverunner 6 Zi Oscilloscope capable of measuring signals up to 4 GHz. Assuming a purely parallel plate geometry with minimal fringing gives an electric field E=V/d, where V is the peak voltage of the applied pulse and d is the gap distance.
(§10) Sample Preparation. These experiments assessed Stapphylococcus aureus (gram positive bacterium number 25923) from ATCC and Esherichia coli (gram negative bacterium number 25922) inoculated in luria broth (LB Broth Lennox, powder microbial growth medium. SIGMA-ALDRICH) by taking 8 mL of broth in a 50 mL sterile conical tube and incubating in a shaker for 20 h at 37° C. The sample was then diluted with fresh Luria broth until attaining an optical density of 0.25 for 100 μL on a photospectrometer (Molecular Devices) for a wavelength of 562 nm as measured in a 96-well plate. The optical density, which varies with growth or tube volume, was determined experimentally and set between 1×10^8 and 1.5×10^8 colony forming units (CFUs)/mL for the samples to be pulsed. These samples were then plated at dilutions between 10-6 and 100 (no dilution) depending on the effectiveness of the pulse treatments.
(§11) Electric Pulse Treatment Protocol. […] Although no consensus exists on a universal scaling law for applied EP “dose,” we fixed the energy density
(§12) [formula] • where N is the number of pulses and τ is the pulse duration. Fixing U for E=40, 30, and 20 kV/cm gave N=250, 445, and 1000 pulses, respectively. Cultures were plated as described below.
Cuvettes were filled with 365 μL of sample (sufficient to just cover the electrodes) and then 250 μL of molecular biology grade mineral oil was placed on top. Keeping the samples on ice upon achieving the required dilution further reduced experimental variability by slowing biological processes, such as fission This facilitated the assessment of the inactivation efficiency of EPs, drugs, and combined treatments.
Tests used the clinically relevant, bactericidal drug tobramycin, which targets the 30S and 50S ribosome complex and has a clinical dose from 4 to 5 μg/mL and rifampicin, which inhibits bacterial […]. Added were 0.2, 2, and 20 μg/mL of each drug to the initial bacterial dilutions prior to pulsing. Samples were immediately placed on ice to minimize cell division and reduce variability. These aliquots were also used to plate individual unpulsed controls for each drug concentration.
(§13) Plating. Plating was done on standard disposable tissue culture Petri dishes from VWR (15 cm diameter, 10 mm height) and covered with 10 mL of agar in luria broth (Agar, microbiology tested powder, SIGMA-ALDRICH), which was prepared by adding 20 g of LB lennox (SIGMA-ALDRICH) and 15 g/L of agar to water and then autoclaved.
(§14) Plated were samples at dilutions of 10^−6 and 10^−3 for low and high electric field treatments, respectively, and at 10^−6 and 10^−5 for controls All samples containing 100 μL of pulsed or diluted cultures were plated on LB agar plates and counted after overnight incubation at 37° C. […]

[6] = test system: Esherichia coli (gram negative bacterium number 25922); test: Inactivation of E. coli by 300 ns electric pulses combined with antibiotic (CFU plating); type: cell-based, Escherichia coli; design: synergy, E. coli: dose or concentration left out as unconfirmed
Method: as §8
as §9, with “Utilizing Luria broth, containing 0.5% NaCl, in a cuvette with gap distances of 1 mm and 2 mm yielded the best electrical match (no reflections in the measured signal).” left out
as §10, §11, §12
Cuvettes were filled with 365 μL of sample (sufficient to just cover the electrodes) and then 250 μL of molecular biology grade mineral oil was placed on top.
Added were 0.2, 2, and 20 μg/mL of each drug to the initial bacterial dilutions prior to pulsing. Samples were immediately placed on ice to minimize cell division and reduce variability. These aliquots were also used to plate individual unpulsed controls for each drug concentration.
as §13
Plated were samples at dilutions of 10^−6 and 10^−3 for low and high electric field treatments, respectively, and at 10^−6 and 10^−5 for controls All samples containing 100 μL of pulsed or diluted cultures were plated on LB agar plates and counted after overnight incubation at 37° C.
Pulsing with drugs: bacterial samples of both gram-positive S. aureus and gram-negative E. coli strains were pulsed in a solution with 0.2, 2, and 20 μg/mL of tobramycin and compared to an un-pulsed drug-exposed control. Pulsing and plating were performed to ensure that the drug exposure time of the bacteria was approximately fifteen minutes.

[7] = test system: bacteria; test: Low-dose tobramycin combined with a train of NSEPs, bacterium not specified; type: cell-based; details: 0.2 μg/mL, 1/20th of the recommended clinical dose; whole process approximately 15 min
Description: as §8
as §10, with “These samples were then plated at dilutions between 10-6 and 100 (no dilution) depending on the effectiveness of the pulse treatments.” left out
as §14

[8] = same energy, different electric fields and number of pulses, different concentrations, vs antibiotic alone

CC[C@H]1OC(=O)[C@H](C)[C@@H](O[C@H]2C[C@@](C)(OC)[C@@H](O)[C@H](C)O2)[C@H](C)[C@@H](O[C@@H]2O[C@H](C)C[C@H](N(C)C)[C@H]2O)[C@](C)(O)C[C@@H](C)C(=O)[C@H](C)[C@@H](O)[C@]1(C)O [erythromycin]
change in E. coli population [1]: induced changes | additional inactivation of P. aeruginosa [2]: no additional inactivation

CC(=O)O[C@H]1C[C@@]2(C)[C@@H](C[C@@H](O)[C@H]3[C@@]4(C)CC[C@@H](O)[C@@H](C)[C@@H]4CC[C@@]32C)/C1=C(\CCC=C(C)C)C(=O)O [fusidic acid]
change in E. coli population [1]: induced changes

CC(=O)NC[C@H]1CN(c2ccc(N3CCOCC3)c(F)c2)C(=O)O1 [linezolid]
log reduction of K. pneumoniae / improvement over the NSEPs ([3]; 30 kV/cm NSEPs + 20 μg/mL): did not induce a statistically significant improvement | change in E. coli population [1]: induced changes | synergy (FIG. 11B legend) ([2]; 20 kV/cm EPs + 20 μg/mL): approximately 2 log | additional inactivation of P. aeruginosa [2]: no additional inactivation

C/C(=C\C(=O)OCCCCCCCCC(=O)O)C[C@@H]1OC[C@H](C[C@@H]2O[C@H]2[C@@H](C)[C@H](C)O)[C@@H](O)[C@H]1O [mupirocin]
synergy (synergistic inactivation), MRSA ([4]; 20 μg/mL + 30 kV/cm EPs): approximately 1.5 log | MRSA 300 inactivation compared to using only the NSEPs ([4]; 20 μg/mL + 30 kV/cm NSEPs): improvement | inactivation of K. pneumoniae vs NSEPs ([3]; 20 kV/cm NSEPs + 2 μg/mL): slight increase | inactivation of K. pneumoniae vs NSEPs ([3]; 20 kV/cm NSEPs + 20 μg/mL): an increase | additional inactivation compared to NSEPs alone, K. pneumoniae ([3]; 30 kV/cm NSEPs + 2 μg/mL): 1 log | change in E. coli population [1]: induced changes | additional inactivation of P. aeruginosa [2]: no additional inactivation

NC[C@H]1O[C@H](O[C@H]2[C@H](O)[C@@H](O[C@H]3O[C@H](CO)[C@@H](O)[C@H](N)[C@H]3O)[C@H](N)C[C@@H]2N)[C@H](N)C[C@@H]1O [tobramycin]
reduction in S. aureus population ([5]; 20 kV/cm EPs + 0.2 μg/mL): 10-20% | log-reduction of S. aureus ([5]; 20 kV/cm EPs + 2 μg/mL): 1.5 log | log-reduction of S. aureus ([5]; 20 kV/cm EPs + 20 μg/mL): 2.6 log | synergy (additional inactivation induced by the antimicrobial for a given pulse condition), S. aureus ([5]; 20 kV/cm pulse trains, 0.2 μg/mL): no synergy | synergy, S. aureus ([5]; 20 kV/cm pulse trains, 2.0 μg/mL): 1.5 log | synergy, S. aureus ([5]; 30 and 40 kV/cm pulse trains, 2 and 20 μg/mL doses): synergies occurred | effect of combining trains of 300 ns EPs with antibiotic on amount of viable S. aureus [5, 8]: synergistically reduced; also recorded: significantly greater inactivation | synergy, E. coli ([6]; 20 kV/cm treatment): did not | synergy, E. coli ([6]; 30 and 40 kV/cm treatments): exhibited synergy | reduction of E. coli ([6]; 40 kV/cm EPs combined with antibiotic, considered complete sterilization): over 9 log-10 | synergy, E. coli ([6]; any of the applied electric fields, any concentration (FIG. 5B)): experienced synergy | effect of combining trains of 300 ns EPs with antibiotic on amount of viable E. coli [6, 8]: synergistically reduced; also recorded: significantly greater inactivation | synergy with NSEPs [7]: Synergy occurred

CN[C@H](CC(C)C)C(=O)N[C@H]1C(=O)N[C@@H](CC(N)=O)C(=O)N[C@H]2C(=O)N[C@H]3C(=O)N[C@H](C(=O)N[C@H](C(=O)O)c4cc(O)cc(O)c4-c4cc3ccc4O)[C@H](O)c3ccc(c(Cl)c3)Oc3cc2cc(c3O[C@@H]2O[C@H](CO)[C@@H](O)[C@H](O)[C@H]2O[C@H]2C[C@](C)(N)[C@H](O)[C@H](C)O2)Oc2ccc(cc2Cl)[C@H]1O [vancomycin]
additional inactivation compared to NSEPs alone, K. pneumoniae ([3]; 30 kV/cm NSEPs + 2 μg/mL): 1 log | log reduction of K. pneumoniae ([3]; 30 kV/cm NSEPs + 2 μg/mL): 5 log | change in E. coli population [1]: induced changes | additional inactivation of P. aeruginosa [2]: no additional inactivation | log reduction of P. aeruginosa ([2]; 30 kV/cm NSEPs + 2 μg/mL): up to 2 log | synergy, P. aeruginosa ([2]; 30 kV/cm NSEPs + 2 μg/mL): synergy
